Data as given in patent US9518300B2, “Composition and method for treating a hematological malignancy” (Dana-Farber Cancer Institute, Inc., priority 2014, dated 2016).

Tests used:
BCL9 [1] = assay: Transient transfection of mature miR-30c, BCL9 immunoblot in RPMI8226 cells; format: cell-based, human; conditions: increasing amounts of mature miR-30c, 72 hours, control cel-miR-67
Protocol: To exclude the possibility that the observed changes in BCL9 expression may be due to non specific and/or secondary effects of stable transfection of V-miR-30c, we also performed transient transfection with increasing amounts of mature miR-30c into RPMI8226 cells, using cel-miR-67 as a control (FIG. 3F).
To confirm transfection efficiency, cells were collected 72 hours after transfection, and miR-30c expression levels were checked by Q-RT-PCR (FIG. 3F, top). We found an inverse association between downregulation of BCL9 protein expression and increasing amounts of transfected mature miR-30c (FIG. 3F, bottom).

BCL9 [2] = assay: Transfection of patient CD138+ primary cells, IF of BCL9, CD44, Axin2; format: cell-based, human; conditions: CD138+ primary cells (n=3), 40 pmol, control cel-miR-67
Text: (§1) In order to verify miR-30's potential for therapy in MM patients, CD138+ primary cells (n=3) were transfected with 40 pmol of mature miR-30c or same amount of cel-miR-67 as control.

H929 cells = assay: Dexamethasone sensitivity of H929 cells co-cultured with HS-5 BMSCs (CAM-DR); format: cell-based, human; conditions: H929 with HS-5 cells 48 h, 200 nM dexamethasone, control cel-miR-67
Text: Reasoning that CD44 is a downstream target of Wnt/β-catenin/BCL9 transcriptional complex, and that miR-30c downregulates expression of CD44 in MM cells (FIG. 3B), and that CD44 is a functional component of cell adhesion-mediated drug resistance (CAM-DR), we investigated the possible role of miR-30s in MM drug resistance in the context of a bone marrow (BM) microenvironment. After ectopic overexpression of miR-30c or miR-30a/b/c/d/e cocktail (miR-30mix) or a negative control (cel-miR-67) in H929 cells, we co-cultured these cells alone or in the presence of HS-5 cells for 48 h and treated them with 200 nM dexamethasone.

BCL9 [3] = assay: BCL9 and Wnt target gene expression after ectopic miR-30 expression (Q-RT-PCR, immunoblot, IF); format: cell-based, human; conditions: H929 cells
Text: We next investigated whether BCL9 mRNA expression is regulated by miR-30s in MM cells using both gain- and loss-of function studies. For gain-of-function studies we used H929 cells that express the lowest levels of miR-30s among the MM cell lines examined (FIG. 1C).
We first induced ectopic expression of individual V-miR-30s family members in H929 cells using lentiviral infection. After flow sorting of GFP positive cells, levels of miR-30s were verified by Q-RT-PCR (FIG. 3A) and then used in subsequent experiments.

[4] = μCT of bone in mice not transplanted with myeloma cells; format: in vivo; conditions: SCID mice not transplanted, 10 days of treatment, versus vehicle
Protocol: Micro-computed topographic (μCT) imaging was performed on the L4-L6 vertebrae of the intact spine of a subset of mice using a high-resolution desktop imaging system (μCT40, Scanco Medical AG, Bruttisellen, Switzerland). Scans were acquired using a 12 μm^3 isotropic voxel size, 70 kVp peak x-ray tube potential, and 200 ms integration time. Cortical and trabecular bone micro architecture was quantified in the 5th lumbar vertebral body in a region beginning 120 μm below the cranial growth plate and ending 120 μm above the caudal growth plate. To assess cortical lesions, we determined the cortical bone volume (Ct.BV) and total volume (Ct.TV) of the ventral face of the vertebral body. Cortical void fraction (%) was calculated as 1−(Ct.BV/Ct.TV)*100 and represents the percent of the ventral face that was void of bone. Trabecular bone volume fraction (Tb.BV/Tb.TV, %) was measured in the region of interest. […]
Micro-computed topographic (μCT) imaging was performed on the L4-L6 vertebrae of the intact spine of a subset of mice using a high-resolution desktop imaging system ([…], Scanco Medical AG, Bruttisellen, Switzerland). […] Cortical and trabecular bone micro architecture was quantified in the 5th lumbar vertebral body in a region beginning 120 μm below the cranial growth plate and ending 120 μm above the caudal growth plate. […]

CD138+ primary cells = assay: Proliferation of patient CD138+ primary MM cells, [3H] thymidine uptake; format: cell-based, human; conditions: 40 pmol
Protocol: Cell proliferation was assessed by [^3H] thymidine uptake as described (1). For apoptosis, cells were stained with Annexin-V-Fluos (Boehringer, Mannheim, Germany). Stained cells were analyzed by flow cytometry, and data were analyzed by use of CellQuest (Becton-Dickinson, Sunnyvale, Calif.). Cell invasion and migration assays were done as described (2).
as §1

Substance: miR-30c: microRNA, UGUAAACAUCCUACACUCUCAGC (SEQ ID NO: 3 / 29) (listed as RNA, chemistry not given here; listed as Homo sapiens)
- BCL9 protein expression (BCL9 [1]): downregulation
- expression of BCL9, CD44 and Axin2 (BCL9 [2]): downregulated
- sensitivity to dexamethasone treatment (H929 cells): resensitize
- expression of BCL9 mRNA (BCL9 [3]): significant reduction
- expression of Wnt pathway downstream targets CD44 and Axin2 (BCL9 [3]): reduced expression
- bone osteolytic lesions [4]: No apparent development
- MM cell proliferation (CD138+ primary cells): dramatically inhibited
